Target: T1, full-length MALT1 protein His-MALT1(1-824) (Homo sapiens, UniProt Q9UDY8)
T1 construct: full-length MALT1 protein His-MALT1(1-824); His (N); made in house; host or cells: baculovirus-infected insect cells
T1 sequence (Q9UDY8 1-824): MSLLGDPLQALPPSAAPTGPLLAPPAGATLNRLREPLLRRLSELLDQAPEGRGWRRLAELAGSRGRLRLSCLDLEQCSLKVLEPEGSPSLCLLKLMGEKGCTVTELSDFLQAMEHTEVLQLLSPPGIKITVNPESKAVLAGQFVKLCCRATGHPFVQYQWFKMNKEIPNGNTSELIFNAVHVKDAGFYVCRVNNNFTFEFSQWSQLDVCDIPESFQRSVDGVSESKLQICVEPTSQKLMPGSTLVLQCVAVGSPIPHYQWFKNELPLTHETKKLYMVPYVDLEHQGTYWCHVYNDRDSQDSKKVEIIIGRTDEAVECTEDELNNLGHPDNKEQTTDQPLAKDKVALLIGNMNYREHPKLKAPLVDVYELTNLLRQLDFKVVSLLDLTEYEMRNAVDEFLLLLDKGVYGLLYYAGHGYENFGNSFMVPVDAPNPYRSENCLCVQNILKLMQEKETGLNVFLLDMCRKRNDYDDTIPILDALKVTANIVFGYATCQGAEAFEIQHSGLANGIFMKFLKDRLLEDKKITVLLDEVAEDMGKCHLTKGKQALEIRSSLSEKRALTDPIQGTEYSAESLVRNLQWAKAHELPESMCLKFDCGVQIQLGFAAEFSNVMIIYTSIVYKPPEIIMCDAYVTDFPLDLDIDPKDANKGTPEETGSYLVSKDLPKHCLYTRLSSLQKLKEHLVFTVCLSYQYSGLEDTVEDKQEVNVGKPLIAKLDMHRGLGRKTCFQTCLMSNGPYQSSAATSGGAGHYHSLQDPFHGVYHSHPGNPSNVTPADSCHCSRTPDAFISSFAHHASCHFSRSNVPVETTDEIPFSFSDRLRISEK
Assay: MALT1 protease assay, Assay 2 (1 nM MALT1, Ac-LRSR-AMC substrate)
Format: biochemical
Details: 1 nM MALT1, 50 μM Ac-LRSR-AMC, 2 h pre-incubation, 8 hr incubation at RT
Description: MALT1 protease activity was assessed in an in vitro assay using a tetrapeptide as substrate and full-length MALT1 protein His-MALT1(1-824) purified from baculovirus-infected insect cells. The tetrapeptide substrate is Ac-LRSR-AMC (SM Biochemicals) with Km measured at around 100 μM.
The final assay buffer includes 1 nM (Assay 2) or 2 nM (Assay 1) of MALT1 full-length protein, 50 μM Ac-LRSR-AMC substrate, 50 mM Tris pH 7.5, 600 mM Sodium Citrate, 1 mM DTT, 1 mM EDTA, and 0.05% BSA in 384-well plate format using black microtiter square well plates (Optiplate 384-F, Perkin Elmer).
Test compounds were dissolved in 100% DMSO at stock of 10 mM, with final DMSO concentration 0.1%. Test compounds were pre-incubated with MALT1 protein for 2 h at room temperature. Substrate was added after the pre-incubation and fluorescence signal was measured using Envision at excitation 355 nm and emission 460 nm after 8 hr incubation at RT. Increase in the assay signal was linear over this period and proportional with increase in the enzyme content.
The fluorescence units were transformed to percentage of remaining activity by using the high control (HC, median of fluorescence signal from wells containing MALT1 protein, substrate, and DMSO) and low control (LC, median of fluorescence signal from wells with substrate only) with the formula below: […]
IC50 and Hill coefficients were obtained using Graph Pad Prism (Graph Pad software, Inc, USA) with non-linear regression analysis.

SMILES | IC50
CC1(C)CC(C(=O)Nc2cnc(OC(F)F)c(C#N)c2)c2cnc3cc(C(F)F)nn3c21 (single isomer, unassigned) [Example 126, N-(5-cyano-6-(difluoromethoxy)pyridin-3-yl)-2-(difluoromethyl)-8,8-dimethyl-7,8-dihydro-6H-cyclopenta[e]pyrazolo[1,5-a]pyrimidine-6-carboxamide] | 10 to 100 nM
CC1(C)C[C@@H](C(=O)Nc2cnc(-n3nccn3)c(C#N)c2)c2cnc3cc(C(F)F)nn3c21 (single isomer, unassigned) [Example 129, N-(5-cyano-6-(2H-1,2,3-triazol-2-yl)pyridin-3-yl)-2-(difluoromethyl)-8,8-dimethyl-7,8-dihydro-6H-cyclopenta[e]pyrazolo[1,5-a]pyrimidine-6-carboxamide] | 100 to 1000 nM
CC1(C)CC(C(=O)Nc2cnc(-n3nccn3)c(C#N)c2)c2cnc3cc(C(F)F)nn3c21 (single isomer, unassigned) [Example 130, N-(5-cyano-6-(2H-1,2,3-triazol-2-yl)pyridin-3-yl)-2-(difluoromethyl)-8,8-dimethyl-7,8-dihydro-6H-cyclopenta[e]pyrazolo[1,5-a]pyrimidine-6-carboxamide] | 10 to 100 nM
O=C(Nc1cnc(C(O)C(F)F)c(Cl)c1)C1CC2(CCC2)c2c1cnc1cc(F)nn21 (single isomer, unassigned) [Example 133, N-(5-chloro-6-(2,2-difluoro-1-hydroxyethyl)pyridin-3-yl)-2′-fluoro-6′,7′-dihydrospiro[cyclobutane-1,8′-cyclopenta[e]pyrazolo[1,5-a]pyrimidine]-6′-carboxamide] | ≥ 1000 nM
CC1(C)C[C@](C)(C(=O)Nc2cnc(-n3nccn3)c(Cl)c2)c2cnc3cc(Cl)nn3c21 (single isomer, unassigned) [Example 138, 2-chloro-N-(5-chloro-6-(2H-1,2,3-triazol-2-yl)pyridin-3-yl)-6,8,8-trimethyl-7,8-dihydro-6H-cyclopenta[e]pyrazolo[1,5-a]pyrimidine-6-carboxamide] | ≥ 1000 nM
Cc1nnn(-c2ncc(NC(=O)C3CC(C)(C)c4c3cnc3cc(Cl)nn43)cc2Cl)n1 (single isomer, unassigned) [Example 141, 2-chloro-N-(5-chloro-6-(5-methyl-2H-tetrazol-2-yl)pyridin-3-yl)-8,8-dimethyl-7,8-dihydro-6H-cyclopenta[e]pyrazolo[1,5-a]pyrimidine-6-carboxamide] | ≥ 1000 nM
Cn1nnc(-c2ncc(NC(=O)C3CC(C)(C)c4c3cnc3cc(Cl)nn43)cc2Cl)n1 (single isomer, unassigned) [Example 143, 2-chloro-N-(5-chloro-6-(2-methyl-2H-tetrazol-5-yl)pyridin-3-yl)-8,8-dimethyl-7,8-dihydro-6H-cyclopenta[e]pyrazolo[1,5-a]pyrimidine-6-carboxamide] | 100 to 1000 nM
Cn1nnnc1-c1ncc(NC(=O)[C@@H]2CC(C)(C)c3c2cnc2cc(Cl)nn32)cc1Cl (single isomer, unassigned) [Example 144, 2-chloro-N-(5-chloro-6-(1-methyl-1H-tetrazol-5-yl)pyridin-3-yl)-8,8-dimethyl-7,8-dihydro-6H-cyclopenta[e]pyrazolo[1,5-a]pyrimidine-6-carboxamide] | 10 to 100 nM

Results, then the compound that gave them:

IC50 | SMILES
100 to 1000 nM | CC1(C)C[C@@H](C(=O)Nc2cnc(-n3nccn3)c(Cl)c2)c2cnc3c(F)c(F)nn3c21 (single isomer, unassigned) [Example 121, N-(5-chloro-6-(2H-1,2,3-triazol-2-yl)pyridin-3-yl)-2,3-difluoro-8,8-dimethyl-7,8-dihydro-6H-cyclopenta[e]pyrazolo[1,5-a]pyrimidine-6-carboxamide]
≥ 1000 nM | CC1(C)C[C@@H](C(=O)Nc2cnc(OC(F)F)c(C#N)c2)c2cnc3cc(C(F)F)nn3c21 (single isomer, unassigned) [Example 125, N-(5-cyano-6-(difluoromethoxy)pyridin-3-yl)-2-(difluoromethyl)-8,8-dimethyl-7,8-dihydro-6H-cyclopenta[e]pyrazolo[1,5-a]pyrimidine-6-carboxamide]
≥ 1000 nM | CC1(C)C[C@@H](C(=O)Nc2cc(N=S(C)(C)=O)nc(C(F)(F)F)c2)c2cnc3cc(F)nn3c21 (single isomer, unassigned) [Example 127, N-(2-((dimethyl(oxo)-λ^6-sulfaneylidene)amino)-6-(trifluoromethyl)pyridin-4-yl)-2-fluoro-8,8-dimethyl-7,8-dihydro-6H-cyclopenta[e]pyrazolo[1,5-a]pyrimidine-6-carboxamide]
≥ 1000 nM | CC1(C)CC(C(=O)Nc2cnc(N=S(C)(C)=O)c(Cl)c2)c2cnc3cc(F)nn3c21 (single isomer, unassigned) [Example 131, N-(5-chloro-6-((dimethyl(oxo)-λ^6-sulfaneylidene)amino)pyridin-3-yl)-2-fluoro-8,8-dimethyl-7,8-dihydro-6H-cyclopenta[e]pyrazolo[1,5-a]pyrimidine-6-carboxamide]
10 to 100 nM | CC1(C)CC(C(=O)Nc2cnc(N=S(C)(C)=O)c(Cl)c2)c2cnc3cc(F)nn3c21 (single isomer, unassigned) [Example 132, N-(5-chloro-6-((dimethyl(oxo)-λ^6-sulfaneylidene)amino)pyridin-3-yl)-2-fluoro-8,8-dimethyl-7,8-dihydro-6H-cyclopenta[e]pyrazolo[1,5-a]pyrimidine-6-carboxamide]
≥ 1000 nM | O=C(Nc1cnc(C(O)C(F)F)c(Cl)c1)C1CC2(CCC2)c2c1cnc1cc(F)nn21 (single isomer, unassigned) [Example 134, N-(5-chloro-6-(2,2-difluoro-1-hydroxyethyl)pyridin-3-yl)-2′-fluoro-6′,7′-dihydrospiro[cyclobutane-1,8′-cyclopenta[e]pyrazolo[1,5-a]pyrimidine]-6′-carboxamide]
100 to 1000 nM | O=C(Nc1cnc([C@@H](O)C(F)F)c(Cl)c1)[C@H]1CC2(CCC2)c2c1cnc1cc(F)nn21 (single isomer, unassigned) [Example 135, N-(5-chloro-6-(2,2-difluoro-1-hydroxyethyl)pyridin-3-yl)-2′-fluoro-6′,7′-dihydrospiro[cyclobutane-1,8′-cyclopenta[e]pyrazolo[1,5-a]pyrimidine]-6′-carboxamide]
100 to 1000 nM | O=C(Nc1cnc([C@H](O)C(F)F)c(Cl)c1)[C@H]1CC2(CCC2)c2c1cnc1cc(F)nn21 (single isomer, unassigned) [Example 136, N-(5-chloro-6-(2,2-difluoro-1-hydroxyethyl)pyridin-3-yl)-2′-fluoro-6′,7′-dihydrospiro[cyclobutane-1,8′-cyclopenta[e]pyrazolo[1,5-a]pyrimidine]-6′-carboxamide]
≥ 1000 nM | CC1(C)CC(C)(C(=O)Nc2cnc(-n3nccn3)c(Cl)c2)c2cnc3cc(Cl)nn3c21 (single isomer, unassigned) [Example 139, 2-chloro-N-(5-chloro-6-(2H-1,2,3-triazol-2-yl)pyridin-3-yl)-6,8,8-trimethyl-7,8-dihydro-6H-cyclopenta[e]pyrazolo[1,5-a]pyrimidine-6-carboxamide]
100 to 1000 nM | Cc1nnn(-c2ncc(NC(=O)[C@H]3CC(C)(C)c4c3cnc3cc(Cl)nn43)cc2Cl)n1 (single isomer, unassigned) [Example 140, 2-chloro-N-(5-chloro-6-(5-methyl-2H-tetrazol-2-yl)pyridin-3-yl)-8,8-dimethyl-7,8-dihydro-6H-cyclopenta[e]pyrazolo[1,5-a]pyrimidine-6-carboxamide]
≥ 1000 nM | Cn1nnc(-c2ncc(NC(=O)[C@@H]3CC(C)(C)c4c3cnc3cc(Cl)nn43)cc2Cl)n1 (single isomer, unassigned) [Example 142, 2-chloro-N-(5-chloro-6-(2-methyl-2H-tetrazol-5-yl)pyridin-3-yl)-8,8-dimethyl-7,8-dihydro-6H-cyclopenta[e]pyrazolo[1,5-a]pyrimidine-6-carboxamide]

— patent publication US12667572B2, “Tricyclic compounds useful in the treatment of cancer, autoimmune and inflammatory disorders” (SCHRÖDINGER, INC., priority 2021, dated 2026)
